Test results reported in patent US6962713B2, “Spot-on formulations for combating parasites” (Merial, priority 1919, dated 2005).
Marks after values point to notes of the source that are not given here.

Test: Plasma kinetics of ivermectin after spot-on application at different doses in combination with fipronil to dogs
Format: in vivo, dog
Settings: for Cmax, Mean: spot-on with fipronil 10 mg.kg^−1, dogs, mean of 3; for t½, Mean: harmonic mean
Description: This study was undertaken in order to assess the linearity of the percutaneous passage of ivermectin after spot-on application of different doses of ivermectin (100, 250, 500 and 1000 μg.kg^−1) in combination with fipronil (10 mg.kg^−1) to the dog. Furthermore, the possibility of control both heartworms and gastro-intestinal nematodes was evaluated.
Twelve male Beagle dogs (allocated into 4 groups of 3 animals were applied spot-on formulations combining ivermectin (0.1%, 0.25%, 0.5% and 1%) and fipronil (10%) at a dose rate of 0.1 ml.kg^−1 (i.e. 100, 250, 500 and 1000 μg.kg^−1 of ivermectin and 10 mg.kg^−1 of fipronil).
The formulations are as follows: […]
The formulations were applied at one spot onto the skin between the shoulder blades.
Blood samples were collected at intervals up to 56 days post treatment.
The determination of ivermectin was carried out by HPLC after an automated solid/liquid extraction, using fluorescence detection, with limit of quantification of 100 pg.ml^−1. The determination of fipronil and its sulfone metabolite (RM1602) was carried out by HPLC with UV detection, with a limit of quantification of 20 ng.ml^−1 for fipronil and RM1602. Both methods were validated in terms of specificity, extraction recovery, linearity, precision and accuracy.

[1] = spot-on with fipronil, dogs, Group I 100 μg.kg^−1 ivermectin
[2] = spot-on with fipronil, dogs, Group I 100 μg.kg^−1 ivermectin, range over dogs
[3] = spot-on with fipronil, dogs, Group II 250 μg.kg^−1 ivermectin
[4] = spot-on with fipronil, dogs, Group II 250 μg.kg^−1 ivermectin, range over dogs
[5] = spot-on with fipronil, dogs, Group III 500 μg.kg^−1 ivermectin
[6] = spot-on with fipronil, dogs, Group III 500 μg.kg^−1 ivermectin, range over dogs
[7] = spot-on with fipronil, dogs, Group IV 1000 μg.kg^−1 ivermectin
[8] = spot-on with fipronil, dogs, Group IV 1000 μg.kg^−1 ivermectin, range over dogs

With ivermectin the “difference in parameters of absorption (Cmax and AUC) between the two studies” value (Example 7 versus Example 6, 250 μg.kg^−1 ivermectin spot-on, dogs) was over 2 fold, the “plasma concentrations of ivermectin compared with Example 6” value (same formulation (0.25% ivermectin, 10% fipronil), same dose 250 μg.kg^−1, dogs) was “much lower” and the “Cmax, Mean” value (Group I 100 μg.kg^−1 ivermectin) was 0.136 ng/mL. For the same substance, the “Cmax, Mean” value (Group II 250 μg.kg^−1 ivermectin) was 0.508 ng/mL, the “Cmax, Mean” value (Group III 500 μg.kg^−1 ivermectin) was 1.064 ng/mL and the “Cmax, Mean” value (Group IV 1000 μg.kg^−1 ivermectin) was 1.802 ng/mL. For the same substance, the “AUC (0-Clast), Mean” value [1] was 382 pg·days/mL, the “Tlast, Mean” value [1] was 7 days and the “tmax, Mean” value [1] was 7 days. For the same substance, the “AUC (0-Clast), Range” value [2] was “[0-775] pg.d.ml^−1”, the “Cmax, Range” value [2] was “[0-235] pg.ml^−1” and the “Tlast, Range” value [2] was “[5-9] d”. For the same substance, the “tmax, Range” value [2] was “[5-9] d”, the “t½, Mean” value [3] was 9.8 (#) d and the “AUC (0-Clast), Mean” value [3] was 7808 pg·days/mL. The “Tlast, Mean” value [3] was 28 days, the “tmax, Mean” value (spot-on with fipronil, dogs, Group II 250 μg.kg^−1 ivermectin, aberant value of 21 days not taken into account) was 4.5* d and the “AUC (0-Clast), Range” value [4] was “[4949-10019] pg.d.ml^−1”. The “Cmax, Range” value [4] was “[250-723] pg.ml^−1”, the “tmax, Range” value [4] was “[4-5] d” and the “t½, Range” value [4] was “[6.4-35.0] d”. For the same substance, the “t½, Mean” value [5] was 11.4 (#) d, the “AUC (0-Clast), Mean” value [5] was 17200 pg·days/mL and the “Tlast, Mean” value [5] was 37 days. For the same substance, the “tmax, Mean” value [5] was 5.7 days, the “AUC (0-Clast), Range” value [6] was “[9088-23274] pg.d.ml^−1” and the “Cmax, Range” value [6] was “[410-572] pg.ml^−1”. The “tmax, Range” value [6] was “[3-7] d”, the “t½, Range” value [6] was “[9.0-16.5] d” and the “t½, Mean” value [7] was 10.2 (#) d. For the same substance, the “AUC (0-Clast), Mean” value [7] was 29711 pg·days/mL, the “Tlast, Mean” value [7] was 40 days and the “tmax, Mean” value [7] was 3.3 days. For the same substance, the “AUC (0-Clast), Range” value [8] was “[16759-39734] pg.d.ml^−1”, the “Cmax, Range” value [8] was “[1669-1966] pg.ml^−1” and the “tmax, Range” value [8] was “[2-5] d”. For the same substance, the “t½, Range” value [8] was “[7.6-12.2] d” and the “mean AUC(0-Clast)” value (spot-on with fipronil, dogs, dose of 250 μg.kg^−1) was 7808 pg·days/mL.
